# Laboratory results published in PubChem BioAssay (NCI).
#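 Here, GI50 denotes the concentration required for 50% inhibition of growth. TGI marks complete inhibition of growth.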
# Columns and labels:
# Assay in all cases: DTP human tumour cell line panel, 384-well format
# IGROV1 ovarian = system: IGROV1 ovarian
# K-562 leukemia = system: K-562 leukemia
# SN12C renal = system: SN12C renal
# A498 renal = system: A498 renal
# NCI-H23 lung = system: NCI-H23 lung
# MDA-MB-231 breast = system: MDA-MB-231 breast
# TK-10 renal = system: TK-10 renal
# A549 NSCLC = system: A549 NSCLC
# HL-60(TB) leukemia = system: HL-60(TB) leukemia
# SF-268 CNS = system: SF-268 CNS
# HOP-92 NSCLC = system: HOP-92 NSCLC
# RPMI-8226 leukemia = system: RPMI-8226 leukemia
# NCI/ADR-RES ovarian = system: NCI/ADR-RES ovarian
# M14 melanoma = system: M14 melanoma
# COLO 205 colon = system: COLO 205 colon
# SNB-19 CNS = system: SNB-19 CNS
# HCC-2998 colon = system: HCC-2998 colon
# CCRF-CEM leukemia = system: CCRF-CEM leukemia
# NCI-H226 lung = system: NCI-H226 lung
# DU-145 prostate = system: DU-145 prostate
# UACC-62 melanoma = system: UACC-62 melanoma
# MCF7 breast = system: MCF7 breast
# OVCAR-3 ovarian = system: OVCAR-3 ovarian
# NCI-H322M lung = system: NCI-H322M lung
# UACC-257 melanoma = system: UACC-257 melanoma
# OVCAR-4 ovarian = system: OVCAR-4 ovarian
# OVCAR-8 ovarian = system: OVCAR-8 ovarian
# HT29 colon = system: HT29 colon
# SF-539 CNS = system: SF-539 CNS
# SW-620 colon = system: SW-620 colon
# SK-MEL-2 melanoma = system: SK-MEL-2 melanoma
# NCI-H460 NSCLC = system: NCI-H460 NSCLC
# 786-0 renal = system: 786-0 renal
# SNB-75 CNS = system: SNB-75 CNS
# KM12 colon = system: KM12 colon
# T-47D breast = system: T-47D breast
# MOLT-4 leukemia = system: MOLT-4 leukemia
# PC-3 prostate = system: PC-3 prostate
# SK-OV-3 ovarian = system: SK-OV-3 ovarian
# SR leukemia = system: SR leukemia
# NCI-H522 lung = system: NCI-H522 lung
# ACHN renal = system: ACHN renal
# SK-MEL-5 melanoma = system: SK-MEL-5 melanoma
# HCT-116 colon = system: HCT-116 colon
# SK-MEL-28 melanoma = system: SK-MEL-28 melanoma
# HCT-15 colon = system: HCT-15 colon
# MALME-3M melanoma = system: MALME-3M melanoma
# OVCAR-5 ovarian = system: OVCAR-5 ovarian
# LOX IMVI melanoma = system: LOX IMVI melanoma
# CAKI-1 renal = system: CAKI-1 renal
# EKVX NSCLC = system: EKVX NSCLC
# HS 578T breast = system: HS 578T breast
smiles,measurement,setting,value
CN(C)CCN(C)CC(C)(C)C(=O)/C=C/c1ccc(Cl)cc1,GI50,IGROV1 ovarian,2.53 µM
same,TGI,IGROV1 ovarian,6.1 µM
same,GI50,K-562 leukemia,1.72 µM
same,TGI,K-562 leukemia,3.44 µM
same,GI50,SN12C renal,2.09 µM
same,TGI,SN12C renal,5.98 µM
same,GI50,A498 renal,2.78 µM
same,TGI,A498 renal,7.47 µM
same,GI50,NCI-H23 lung,5.84 µM
same,TGI,NCI-H23 lung,18.2 µM
same,GI50,MDA-MB-231 breast,3.1 µM
same,TGI,MDA-MB-231 breast,8.03 µM
same,GI50,TK-10 renal,2.44 µM
same,TGI,TK-10 renal,6.06 µM
same,GI50,A549 NSCLC,3.3 µM
same,TGI,A549 NSCLC,11.1 µM
same,GI50,HL-60(TB) leukemia,1.94 µM
same,TGI,HL-60(TB) leukemia,3.37 µM
same,GI50,SF-268 CNS,2.39 µM
same,TGI,SF-268 CNS,5.29 µM
same,GI50,HOP-92 NSCLC,2.09 µM
same,TGI,HOP-92 NSCLC,4.65 µM
same,GI50,RPMI-8226 leukemia,1.71 µM
same,TGI,RPMI-8226 leukemia,3.17 µM
same,GI50,NCI/ADR-RES ovarian,2.06 µM
same,TGI,NCI/ADR-RES ovarian,3.98 µM
same,GI50,M14 melanoma,2.07 µM
same,TGI,M14 melanoma,4.06 µM
same,GI50,COLO 205 colon,5.88 µM
same,TGI,COLO 205 colon,17.1 µM
same,GI50,SNB-19 CNS,2.93 µM
same,TGI,SNB-19 CNS,9.62 µM
same,GI50,HCC-2998 colon,4.45 µM
same,TGI,HCC-2998 colon,13.7 µM
same,GI50,CCRF-CEM leukemia,1.68 µM
same,TGI,CCRF-CEM leukemia,3.05 µM
same,GI50,NCI-H226 lung,5.39 µM
same,TGI,NCI-H226 lung,16.2 µM
same,GI50,DU-145 prostate,3.22 µM
same,TGI,DU-145 prostate,8.86 µM
same,GI50,UACC-62 melanoma,1.91 µM
same,TGI,UACC-62 melanoma,3.75 µM
same,GI50,MCF7 breast,17.2 µM
same,TGI,MCF7 breast,31.2 µM
same,GI50,OVCAR-3 ovarian,1.75 µM
same,TGI,OVCAR-3 ovarian,4.03 µM
same,GI50,NCI-H322M lung,3.11 µM
same,TGI,NCI-H322M lung,7.72 µM
same,GI50,UACC-257 melanoma,2.36 µM
same,TGI,UACC-257 melanoma,4.96 µM
same,GI50,OVCAR-4 ovarian,2.37 µM
same,TGI,OVCAR-4 ovarian,5.73 µM
same,GI50,OVCAR-8 ovarian,2.24 µM
same,TGI,OVCAR-8 ovarian,4.8 µM
same,GI50,HT29 colon,3.26 µM
same,TGI,HT29 colon,11.8 µM
same,GI50,SF-539 CNS,10.5 µM
same,TGI,SF-539 CNS,22.4 µM
same,GI50,SW-620 colon,2.09 µM
same,TGI,SW-620 colon,4.45 µM
same,GI50,SK-MEL-2 melanoma,1.55 µM
same,TGI,SK-MEL-2 melanoma,3.32 µM
same,GI50,NCI-H460 NSCLC,2.03 µM
same,TGI,NCI-H460 NSCLC,4.12 µM
same,GI50,786-0 renal,2.91 µM
same,TGI,786-0 renal,9.33 µM
same,GI50,SNB-75 CNS,2.91 µM
same,TGI,SNB-75 CNS,7.32 µM
same,GI50,KM12 colon,2.45 µM
same,TGI,KM12 colon,5.05 µM
same,GI50,T-47D breast,17.9 µM
same,TGI,T-47D breast,31.9 µM
same,GI50,MOLT-4 leukemia,1.76 µM
same,TGI,MOLT-4 leukemia,3.2 µM
same,GI50,PC-3 prostate,2.62 µM
same,TGI,PC-3 prostate,5.93 µM
same,GI50,SK-OV-3 ovarian,2.24 µM
same,TGI,SK-OV-3 ovarian,5.95 µM
same,GI50,SR leukemia,1.42 µM
same,TGI,SR leukemia,2.73 µM
same,GI50,NCI-H522 lung,1.34 µM
same,TGI,NCI-H522 lung,2.77 µM
same,GI50,ACHN renal,2.02 µM
same,TGI,ACHN renal,7.29 µM
same,GI50,SK-MEL-5 melanoma,1.9 µM
same,TGI,SK-MEL-5 melanoma,4.08 µM
same,GI50,HCT-116 colon,2 µM
same,TGI,HCT-116 colon,4.18 µM
same,GI50,SK-MEL-28 melanoma,3.06 µM
same,TGI,SK-MEL-28 melanoma,10.2 µM
same,GI50,HCT-15 colon,5.08 µM
same,TGI,HCT-15 colon,17.8 µM
same,GI50,MALME-3M melanoma,4.76 µM
same,TGI,MALME-3M melanoma,14.6 µM
same,GI50,OVCAR-5 ovarian,7.14 µM
same,TGI,OVCAR-5 ovarian,19.7 µM
same,GI50,LOX IMVI melanoma,0.764 µM
same,TGI,LOX IMVI melanoma,2.12 µM
same,GI50,CAKI-1 renal,2.92 µM
same,TGI,CAKI-1 renal,12 µM
same,GI50,EKVX NSCLC,2.14 µM
same,TGI,EKVX NSCLC,5.07 µM
same,GI50,HS 578T breast,2.55 µM
same,TGI,HS 578T breast,6.02 µM
